According to patent US7582611B2, “Motilide compounds” (Pfizer Inc., priority 2005, dated 2009):
In brackets after ≈: the same amount, converted by molar mass.

What was measured:
Motilin Receptor = molecular target: T1, Motilin Receptor (Oryctolagus cuniculus, UniProt G1T803); test: Tissue based assay for motilin agonist potency (rabbit duodenum contractility); format: cell-based; settings: rabbit duodenum strips, contraction normalized to 1 μM carbachol; read-out: Motilin Receptor Agonist Activity (EC50)
T1 construct: strips of longitudinal smooth muscle were sliced from the segments; from tissue; host or cells: rabbit duodenum longitudinal smooth muscle strips
Experimental: The motilin agonist potencies of compounds of this invention were evaluated using a tissue based assay, using rabbit duodenum tissue-based contractility assay, generally following the procedure of Depoortere et al., J. Gastrointestinal Motility, 1, 150-159 (1989), the disclosure of which is incorporated herein by reference. Briefly, this method measures the ability of a compound to induce contractions in rabbit duodenal tissue, a motilin receptor-bearing tissue contractilely responsive to motilin.
Strips of rabbit duodenum were tested and qualified for use in the assay by as follows. Segments of rabbit duodenum, 20-30 cm distal to the pylorus were split longitudinally. The mucosa was removed and 2×2×15 mm strips of longitudinal smooth muscle were sliced from the segments. The strips were bathed in oxygenated Krebs solution at 37° C., with 1.5 g of tension, and contractions measured auxotonically.
The carbachol was then washed away by changing the organ bath buffer twice. The strips were washed again 20±5 minutes following the carbachol contraction. Following this last wash a dose response study was initiated within 10±5 min. Each compound tested was dissolved in dimethylsulfoxide (DMSO) to a final concentration of 10 mM. A series of seven 10× serial dilutions in water was prepared, so that the concentration of the seventh serial dilution was 1.0×10^−6 mM. The first through fifth serial dilutions of the compound were applied, starting with 200 μL of the most dilute solution. After each application, there was a wait of 2±0.5 min, until the response was stable, before the application of the next dose (the next higher concentration serial dilution). The dose was increased in 10-fold increments until a small response was observed. Subsequent doses were the increased in 2- to 5-fold increments, until the maximum response was obtained. At 2±0.5 min after the last drug addition, the strips were dosed with 1 μM carbachol.
The EC50 (concentration producing a half-maximal effect) was calculated as follows. The basal tension was subtracted from the compound-induced tension for each reading. The data points were normalized against the response obtained from 1 μM carbachol at the end of the experiment. The concentration of compound was plotted against the response and fitted to the following equation: R=(Rmax·C)/(EC50+C) where R is the contraction response, Rmax is the maximal contraction response, and C is the concentration of compound. Both R and Rmax are expressed as a fraction of the 1 μM carbachol contraction and range from 0 to 1.

[1] = tested on: Streptococcus pneumoniae ATCC 6301; test: Evaluation of antibacterial activity (MIC, serial dilutions on 96-well microtiter plates); format: cell-based; settings: ATCC6301, read-out: Antibacterial Activity (MIC, μg/mL)

T1 sequence (G1T803 1-400): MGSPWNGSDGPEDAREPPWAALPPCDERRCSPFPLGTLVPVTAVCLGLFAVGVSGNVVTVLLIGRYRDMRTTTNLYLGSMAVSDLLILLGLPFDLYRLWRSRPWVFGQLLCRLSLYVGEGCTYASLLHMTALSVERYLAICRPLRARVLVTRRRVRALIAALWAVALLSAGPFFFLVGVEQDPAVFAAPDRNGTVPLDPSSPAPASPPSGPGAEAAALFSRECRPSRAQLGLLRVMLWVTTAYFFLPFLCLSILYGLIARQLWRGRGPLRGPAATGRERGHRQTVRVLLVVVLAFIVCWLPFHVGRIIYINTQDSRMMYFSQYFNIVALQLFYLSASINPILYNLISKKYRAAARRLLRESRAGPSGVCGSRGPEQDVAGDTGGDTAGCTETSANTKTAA

Row | Structure (SMILES) | EC50 (Motilin Receptor) | MIC [1]
1 | CC[C@H]1OC(=O)[C@H](C)[C@@H](O[C@H]2C[C@@](C)(OC)[C@@H](O)[C@H](C)O2)[C@H](C)[C@@H](O[C@@H]2O[C@H](C)C[C@H](N(C)C(C)C)[C@H]2O)[C@](C)(O)C[C@@H](C)[C@H](OCC(=O)NCC(F)(F)F)[C@H](C)[C@@H](O)[C@]1(C)O [Compound A-52] | 160 nM | 128 µg/mL (≈ 142 µM)
2 | CCNC(=O)NCCO[C@@H]1[C@H](C)[C@@H](O)[C@](C)(O)[C@@H](CC)OC(=O)[C@H](C)[C@@H](O[C@H]2C[C@@](C)(OC)[C@@H](O)[C@H](C)O2)[C@H](C)[C@@H](O[C@@H]2O[C@H](C)C[C@H](N(C)C(C)C)[C@H]2O)[C@](C)(O)C[C@H]1C [Compound A-54] | 100 nM | > 128 µg/mL
3 | CC[C@H]1OC(=O)[C@H](C)[C@@H](O[C@H]2C[C@@](C)(OC)[C@@H](O)[C@H](C)O2)[C@H](C)[C@@H](O[C@@H]2O[C@H](C)C[C@H](N(C)C3CCC3)[C@H]2O)[C@](C)(O)C[C@@H](C)[C@H](OCC(=O)OC)[C@H](C)[C@@H](O)[C@]1(C)O [Compound A-23] | 560 nM | > 128 µg/mL
4 | CC[C@H]1OC(=O)[C@H](C)[C@@H](O[C@H]2C[C@@](C)(OC)[C@@H](O)[C@H](C)O2)[C@H](C)[C@@H](O[C@@H]2O[C@H](C)C[C@H](N(C)C(C)C)[C@H]2O)[C@](C)(O)C[C@@H](C)[C@H](OCC(=O)N(C)C)[C@H](C)[C@@H](O)[C@H]1C [Compound A-72] | 270 nM | > 128 µg/mL
5 | CC[C@H]1OC(=O)[C@H](C)[C@@H](O[C@H]2C[C@@](C)(OC)[C@@H](O)[C@H](C)O2)[C@H](C)[C@@H](O[C@@H]2O[C@H](C)C[C@H](N(C)C3CCC3)[C@H]2O)[C@](C)(O)C[C@@H](C)[C@H](NS(=O)(=O)C2CC2)[C@H](C)[C@@H](O)[C@]1(C)O [Compound A-42] | 340 nM | > 128 µg/mL
6 | CC[C@H]1OC(=O)[C@H](C)[C@@H](O[C@H]2C[C@@](C)(OC)[C@@H](O)[C@H](C)O2)[C@H](C)[C@@H](O[C@@H]2O[C@H](C)C[C@H](N(C)CC(C)C)[C@H]2O)[C@](C)(O)C[C@@H](C)[C@H](NS(C)(=O)=O)[C@H](C)[C@@H](O)[C@]1(C)O [Compound A-38] | 140 nM | 128 µg/mL (≈ 150 µM)
7 | CCOC(=O)CO[C@@H]1[C@H](C)[C@@H](O)[C@](C)(O)[C@@H](CC)OC(=O)[C@H](C)[C@@H](O[C@H]2C[C@@](C)(OC)[C@@H](O)[C@H](C)O2)[C@H](C)[C@@H](O[C@@H]2O[C@H](C)C[C@H](N(C)C[C@H](C)O)[C@H]2O)[C@](C)(O)C[C@H]1C [Compound A-9] | 430 nM | > 128 µg/mL
8 | CC[C@H]1OC(=O)[C@H](C)[C@@H](O[C@H]2C[C@@](C)(OC)[C@@H](O)[C@H](C)O2)[C@H](C)[C@@H](O[C@@H]2O[C@H](C)C[C@H](N(C)C3CCC3)[C@H]2O)[C@](C)(O)C[C@@H](C)[C@H](OC(C)=O)[C@H](C)[C@@H](O)[C@]1(C)O [Compound A-24] | 860 nM | > 128 µg/mL
9 | CC[C@H]1OC(=O)[C@H](C)[C@@H](O[C@H]2C[C@@](C)(OC)[C@@H](O)[C@H](C)O2)[C@H](C)[C@@H](O[C@@H]2O[C@H](C)C[C@H](N(C)C(C)C)[C@H]2O)[C@](C)(O)C[C@@H](C)[C@H](OCC(=O)NCCOC)[C@H](C)[C@@H](O)[C@]1(C)O [Compound A-63] | 50 nM | 128 µg/mL (≈ 146 µM)
10 | CC[C@H]1OC(=O)[C@H](C)[C@@H](O[C@H]2C[C@@](C)(OC)[C@@H](O)[C@H](C)O2)[C@H](C)[C@@H](O[C@@H]2O[C@H](C)C[C@H](N(C)CCO)[C@H]2O)[C@](C)(O)C[C@@H](C)[C@H](NS(C)(=O)=O)[C@H](C)[C@@H](O)[C@]1(C)O [Compound A-36] | 66 nM | 32 µg/mL (≈ 38 µM)

Now from value to compound:

Row | EC50 (Motilin Receptor) | MIC [1] | Structure (SMILES)
11 | 210 nM | > 128 µg/mL | CC[C@H]1OC(=O)[C@H](C)[C@@H](O[C@H]2C[C@@](C)(OC)[C@@H](O)[C@H](C)O2)[C@H](C)[C@@H](O[C@@H]2O[C@H](C)C[C@H](N(C)C(C)C)[C@H]2O)[C@](C)(O)C[C@@H](C)[C@H](OCC#N)[C@H](C)[C@@H](O)[C@]1(C)O [Compound A-7]
12 | 290 nM | 128 µg/mL (≈ 149 µM) | CC[C@H]1OC(=O)[C@H](C)[C@@H](O[C@H]2C[C@@](C)(OC)[C@@H](O)[C@H](C)O2)[C@H](C)[C@@H](O[C@@H]2O[C@H](C)C[C@H](N(C)C(C)C)[C@H]2O)[C@](C)(O)C[C@@H](C)[C@H](OCc2nccs2)[C@H](C)[C@@H](O)[C@]1(C)O [Compound A-29]
13 | 63 nM | 128 µg/mL (≈ 152 µM) | CC[C@H]1OC(=O)[C@H](C)[C@@H](O[C@H]2C[C@@](C)(OC)[C@@H](O)[C@H](C)O2)[C@H](C)[C@@H](O[C@@H]2O[C@H](C)C[C@H](N(C)C(C)C)[C@H]2O)[C@](C)(O)C[C@@H](C)[C@H](OCc2ncc[nH]2)[C@H](C)[C@@H](O)[C@]1(C)O [Compound A-62]
14 | 67 nM | > 128 µg/mL | CCNC(=O)CO[C@@H]1[C@H](C)[C@@H](O)[C@](C)(O)[C@@H](CC)OC(=O)[C@H](C)[C@@H](O[C@H]2C[C@@](C)(OC)[C@@H](O)[C@H](C)O2)[C@H](C)[C@@H](O[C@@H]2O[C@H](C)C[C@H](N(C)C(C)C)[C@H]2O)[C@](C)(O)C[C@H]1C [Compound A-31]
15 | 660 nM | 64 µg/mL (≈ 75.4 µM) | CC[C@H]1OC(=O)[C@H](C)[C@@H](O[C@H]2C[C@@](C)(OC)[C@@H](O)[C@H](C)O2)[C@H](C)[C@@H](O[C@@H]2O[C@H](C)C[C@H](N(C)C(C)C)[C@H]2O)[C@](C)(O)C[C@@H](C)[C@H](OCC(=O)N(C)C)[C@H](C)[C@@H](O)[C@]1(C)O [Compound A-15]
16 | 650 nM | 64 µg/mL (≈ 79.3 µM) | CC[C@H]1OC(=O)[C@H](C)[C@@H](O[C@H]2C[C@@](C)(OC)[C@@H](O)[C@H](C)O2)[C@H](C)[C@@H](O[C@@H]2O[C@H](C)C[C@H](N(C)C(C)C)[C@H]2O)[C@](C)(O)C[C@@H](C)[C@H](OC(N)=O)[C@H](C)[C@@H](O)[C@]1(C)O [Compound A-17]
17 | 120 nM | 128 µg/mL (≈ 148 µM) | CC[C@H]1OC(=O)[C@H](C)[C@@H](O[C@H]2C[C@@](C)(OC)[C@@H](O)[C@H](C)O2)[C@H](C)[C@@H](O[C@@H]2O[C@H](C)C[C@H](N(C)C(C)C)[C@H]2O)[C@](C)(O)C[C@@H](C)[C@H](OCC(=O)NCCO)[C@H](C)[C@@H](O)[C@]1(C)O [Compound A-34]
18 | 31 nM | 128 µg/mL (≈ 149 µM) | CC[C@H]1OC(=O)[C@H](C)[C@@H](O[C@H]2C[C@@](C)(OC)[C@@H](O)[C@H](C)O2)[C@H](C)[C@@H](O[C@@H]2O[C@H](C)C[C@H](N(C)C(C)C)[C@H]2O)[C@](C)(O)C[C@@H](C)[C@H](OCC(=O)NC2CC2)[C@H](C)[C@@H](O)[C@]1(C)O [Compound A-46]
19 | 54 nM | > 128 µg/mL | CC[C@H]1OC(=O)[C@H](C)[C@@H](O[C@H]2C[C@@](C)(OC)[C@@H](O)[C@H](C)O2)[C@H](C)[C@@H](O[C@@H]2O[C@H](C)C[C@H](N(C)C(C)C)[C@H]2O)[C@](C)(O)C[C@@H](C)[C@H](OCc2nc[nH]n2)[C@H](C)[C@@H](O)[C@]1(C)O [Compound A-55]
20 | 84 nM | 128 µg/mL (≈ 148 µM) | CC[C@H]1OC(=O)[C@H](C)[C@@H](O[C@H]2C[C@@](C)(OC)[C@@H](O)[C@H](C)O2)[C@H](C)[C@@H](O[C@@H]2O[C@H](C)C[C@H](N(C)C(C)C)[C@H]2O)[C@](C)(O)C[C@@H](C)[C@H](OCCCC(=O)NC)[C@H](C)[C@@H](O)[C@]1(C)O [Compound A-73]
21 | 150 nM | 128 µg/mL (≈ 156 µM) | CC[C@H]1OC(=O)[C@H](C)[C@@H](O[C@H]2C[C@@](C)(OC)[C@@H](O)[C@H](C)O2)[C@H](C)[C@@H](O[C@@H]2O[C@H](C)C[C@H](N(C)C(C)C)[C@H]2O)[C@](C)(O)C[C@@H](C)[C@H](OCC(=O)O)[C@H](C)[C@@H](O)[C@]1(C)O [Compound A-56]
22 | 54 nM | 64 µg/mL (≈ 79.2 µM) | CC[C@H]1OC(=O)[C@H](C)[C@@H](O[C@H]2C[C@@](C)(OC)[C@@H](O)[C@H](C)O2)[C@H](C)[C@@H](O[C@@H]2O[C@H](C)C[C@H](N(C)C(C)C)[C@H]2O)[C@](C)(O)C[C@@H](C)[C@H](OCCO)[C@H](C)[C@@H](O)[C@]1(C)O [Compound A-3]
23 | > 420 nM | 128 µg/mL (≈ 150 µM) | CC[C@H]1OC(=O)[C@H](C)[C@@H](O[C@H]2C[C@@](C)(OC)[C@@H](O)[C@H](C)O2)[C@H](C)[C@@H](O[C@@H]2O[C@H](C)C[C@H](N(C)C(C)C)[C@H]2O)[C@](C)(O)C[C@@H](C)[C@H](OCc2ccncc2)[C@H](C)[C@@H](O)[C@]1(C)O [Compound A-28]
